The structures appear in SMILES notation.

The results in this text go back to US20200008421A1, “ADJUVANTS” (SYNGENTA PARTICIPATIONS AG, priority 2016, published 2020).

Holding throughout (format): in vivo
For assay [1], the system named is Polygonum convolvulus (POLCO), Brachiaria plantaginea (BRAPL), Commelina benghalensis (COMBE), Digitaria sanguinalis (DIGSA). Kind of assay: Glasshouse herbicide efficacy of mesotrione with adjuvants (Example 9). The settings on record: mesotrione SC, mean over 30 and 60 g/ha, three replicates, four weed species; 21 days after application; adjuvants 0.2% v/v, Tween 20 0.5% v/v; 200 l/ha. As for the experimental part: The efficacy of Adjuvant 5 as an adjuvant for the herbicide mesotrione was tested in a glasshouse against four weed species. Mesotrione was added to the spray tank as a standard SC (suspension concentrate) formulation.
The spray tests were also carried out using mesotrione in conjunction with Adjuvant 5, Adjuvant 6 or the well-known adjuvant Tween® 20. […] The four weed species were Polygonum convolvulus (POLCO), Brachiaria plantaginea (BRAPL), Commelina benghalensis (COMBE) and Digitaria sanguinalis (DIGSA).
Each spray test was replicated three times. […] The results shown in Table 9 below are mean averages over the two rates of mesotrione, the three replicates and the four weed species.

Assay [2] has the same test system. Nature of the assay: Glasshouse herbicide efficacy of mesotrione with adjuvants (Example 2). The settings on record: mesotrione SC, mean over 30 and 60 g/ha, three replicates, four weed species; 21 days after application; adjuvants 0.2% v/v, Tween 20 0.5% v/v; 200 l/ha. On the procedure:
(§1) Mesotrione was added to the spray tank as a standard SC (suspension concentrate) formulation.
The four weed species were Polygonum convolvulus (POLCO; growth stage 13-15), Brachiaria plantaginea (BRAPL; growth stage 13-21), Commelina benghalensis (COMBE; growth stage 12-13) and Digitaria sanguinalis (DIGSA; growth stage 13-14).
Each spray test was replicated three times. […] The results shown in Table 2 below are mean averages over the two rates of mesotrione, the three replicates and the four weed species.

For assay [3] the test system is unchanged. Kind of assay: Glasshouse herbicide efficacy of mesotrione with adjuvants (Example 6). The note with it: mesotrione SC, mean over 30 and 60 g/ha, three replicates, four weed species; 21 days after application; Adjuvant 2 0.2% v/v, Tween 20 0.5% v/v; 200 l/ha. As for the experimental part:
as §1
The spray tests were also carried out using mesotrione in conjunction with Adjuvant 2 or the well-known adjuvant Tween® 20. […] The four weed species were Polygonum convolvulus (POLCO), Brachiaria plantaginea (BRAPL), Commelina benghalensis (COMBE) and Digitaria sanguinalis (DIGSA). Each spray test was replicated three times. […] The results shown in Table 6 below are mean averages over the two rates of mesotrione, the three replicates and the four weed species.

Assay [4] relates to Abutilon theophrasti (ABUTH), Chenopodium album (CHEAL), Digitaria sanguinalis (DIGSA), Setaria viridis (SETVI). Kind of assay: Glasshouse herbicide efficacy of nicosulfuron with adjuvants (Example 1). The note with it: nicosulfuron WG, mean over 30 and 60 g/ha, three replicates, four weed species; 21 days after application; adjuvants 0.2% v/v, Atplus 411F 0.5% v/v; 200 l/ha. As for the experimental part: (§2) Nicosulfuron was added to the spray tank as a standard WG (water dispersible granule) formulation.
Each spray test was replicated three times. […] The results shown in Table 1 below are mean averages over the two rates of nicosulfuron, the three replicates and the four weed species.

Assay [5] has the same test system. Nature of the assay: Glasshouse herbicide efficacy of nicosulfuron with adjuvants (Example 5). The settings on record: nicosulfuron WG, mean over 30 and 60 g/ha, three replicates, four weed species; 21 days after application; Adjuvant 2 0.2% v/v, Atplus 411F 0.5% v/v; 200 l/ha. On the procedure: as §2
The spray tests were also carried out using nicosulfuron in conjunction with Adjuvant 2 or the commercially available tank-mix adjuvant, Atplus 411F®. […] The weed species were Abutilon theophrasti (ABUTH), Chenopodium album (CHEAL), Digitaria sanguinalis (DIGSA) and Setaria viridis (SETVI).
Each spray test was replicated three times. […] The results shown in Table 5 below are mean averages over the two rates of nicosulfuron, the three replicates and the four weed species.

Assay [6] deals with Alopecurus myosuroides (ALOMY), Avena fatua (AVEFA), Lolium perenne (LOLPE), Setaria viridis (SETVI). Nature of the assay: Glasshouse herbicide efficacy of pinoxaden with adjuvants (Example 3). The note with it: pinoxaden EC, mean over 7.5 and 15 g/ha, three replicates, four weed species; 21 days after application; adjuvants 0.2% v/v; 200 l/ha. As for the experimental part: (§3) Pinoxaden was added to the spray tank as a standard EC (emulsifiable concentrate) formulation.
Each spray test was replicated three times. […] The results shown in Table 3 below are mean averages over the two rates of pinoxaden, the three replicates and the four weed species.

For assay [7] the test system is unchanged. Kind of assay: Glasshouse herbicide efficacy of pinoxaden with adjuvants (Example 10). The settings on record: pinoxaden EC, mean over 7.5 and 15 g/ha, three replicates, four weed species; 21 days after application; adjuvants 0.2% v/v; 200 l/ha. On the procedure:
The efficacy of Adjuvant 5 as an adjuvant for the herbicide pinoxaden was tested in a glasshouse against four weed species. Pinoxaden was added to the spray tank as a standard EC (emulsifiable concentrate) formulation.
The spray tests were also carried out using pinoxaden in conjunction with Adjuvant 5, Adjuvant 6 or the standard adjuvant tris(2-ethylhexyl) phosphate. […] The weed species were Alopecurus myosuroides (ALOMY), Avena fatua (AVEFA), Lolium perenne (LOLPE) and Setaria viridis (SETVI). Each spray test was replicated three times. […] The results shown in Table 10 below are mean averages over the two rates of pinoxaden, the three replicates and the four weed species.

The test system is the same in assay [8]. Nature of the assay: Glasshouse herbicide efficacy of pinoxaden with adjuvants (Example 7). The note with it: pinoxaden EC, mean over 7.5 and 15 g/ha, three replicates, four weed species; 21 days after application; adjuvants 0.2% v/v; 200 l/ha. As for the experimental part: as §3
The spray tests were also carried out using pinoxaden in conjunction with Adjuvant 2 or the standard adjuvant tris(2-ethylhexyl) phosphate. […] The weed species were Alopecurus myosuroides (ALOMY), Avena fatua (AVEFA); Lolium perenne (LOLPE) and Setaria viridis (SETVI).
Each spray test was replicated three times. […] The results shown in Table 7 below are mean averages over the two rates of pinoxaden, the three replicates and the four weed species.

Regarding `CS(=O)(=O)c1ccc(C(=O)C2C(=O)CCCC2=O)c([N+](=O)[O-])c1` [Mesotrione, mesotrione], the “Mean across species % phytotoxicity (mean percentage kill, leaf area killed)” value came out at 27.5% in assay [1], 25.6% in assay [2] and 17.8% in assay [3].

For `COc1cc(OC)nc(NC(=O)NS(=O)(=O)c2ncccc2C(=O)N(C)C)n1` [Nicosulfuron, nicosulfuron], the entries for the “Mean across species % phytotoxicity (mean percentage kill, leaf area killed)” value in assay [4] and in assay [5] were 34.4% and 64.5%, respectively.

`CCc1cc(C)cc(CC)c1-c1c(OC(=O)C(C)(C)C)n2n(c1=O)CCOCC2` [Pinoxaden, pinoxaden]: the “Mean across species % phytotoxicity (mean percentage kill, leaf area killed)” value in assay [6] stood at 3.6%; in assay [7], 7.5%; in assay [8] it was 3.4%.
